Patent US20230295197A1, “STAT5 and STAT6 Degraders and Uses Thereof” (REGENTS OF THE UNIVERSITY OF MICHICAN, priority 2022, published 2023)
Where two headings read alike, the source gives them in different places.

Experiments:
STAT6 = target: T1, STAT6 (Homo sapiens, UniProt P42226); experiment: Immunoblotting (Western blot) analysis of STAT6 degradation efficiency of degraders in treated cells; format: cell-based
T1 construct: endogenous in cells; host or cells: MOLM-16, KU-812, SKNO1, MB231, L1236
T1 sequence (P42226 1-847): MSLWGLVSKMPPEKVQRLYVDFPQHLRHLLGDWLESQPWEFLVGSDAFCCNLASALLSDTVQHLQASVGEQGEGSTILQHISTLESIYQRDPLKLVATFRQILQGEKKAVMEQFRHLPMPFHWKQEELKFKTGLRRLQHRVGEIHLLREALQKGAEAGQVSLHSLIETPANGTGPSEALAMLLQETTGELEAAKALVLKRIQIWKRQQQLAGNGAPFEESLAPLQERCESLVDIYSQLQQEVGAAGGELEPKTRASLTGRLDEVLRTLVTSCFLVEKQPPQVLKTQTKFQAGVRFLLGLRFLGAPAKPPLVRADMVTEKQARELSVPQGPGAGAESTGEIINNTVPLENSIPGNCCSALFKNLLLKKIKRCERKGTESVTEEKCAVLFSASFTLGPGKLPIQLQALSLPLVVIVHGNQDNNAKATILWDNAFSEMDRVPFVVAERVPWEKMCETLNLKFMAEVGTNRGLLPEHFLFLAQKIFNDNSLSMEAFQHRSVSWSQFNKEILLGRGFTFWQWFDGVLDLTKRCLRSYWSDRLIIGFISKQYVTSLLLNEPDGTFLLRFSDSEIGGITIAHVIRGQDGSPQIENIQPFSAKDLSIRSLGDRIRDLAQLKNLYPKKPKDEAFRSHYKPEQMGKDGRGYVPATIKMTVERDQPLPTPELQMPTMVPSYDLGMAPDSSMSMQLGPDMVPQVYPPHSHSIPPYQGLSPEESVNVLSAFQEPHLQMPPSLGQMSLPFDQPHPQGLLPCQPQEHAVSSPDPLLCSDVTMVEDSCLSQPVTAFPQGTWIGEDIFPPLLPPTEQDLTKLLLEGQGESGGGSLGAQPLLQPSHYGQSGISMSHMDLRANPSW
Procedure, shortened: (§1)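 Degradation read by quantitative near-infrared Western blot: equal protein loads (20-40 μg) from compound-treated versus untreated cells, probed overnight at 4° C. for STAT5 or STAT6 with GAPDH reference. Compound concentrations and exposure times as indicated; cells grown in medium with 10% FBS at 37° C.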

STAT5 = experiment: Immunoblotting (Western blot) analysis of STAT5 degradation efficiency of degraders in treated cells; format: cell-based
Procedure, shortened: as §1

[1] = MOLM-16 cells, numeric bound, read-out: DC50 S6 MOLM-16
[2] = MOLM-16 cells, numeric bound, read-out: DC50 S5 MOLM-16
[3] = MOLM-16 cells, class symbols, read-out: DC50 S5 MOLM-16
[4] = KU-812 cells, read-out: DC50 S5 KU-812
[5] = SKNO1 cells, read-out: DC50 S5 SKNO1

Row | SMILES | DC50 (STAT6; [1]) [nM] | DC50 (STAT5; [2]) [nM] | DC50 (STAT5; [4]) [nM] | DC50 (STAT5; [5]) [nM] | other results
1 | Cc1ncsc1-c1ccc([C@H](CC(=O)NCCCCCCCCC(=O)N[C@@H]2C[C@@H](C(=O)Nc3ncc(-c4ccccc4)s3)N(C(=O)[C@@H](NC(=O)c3cc4cc(C(F)(F)P(=O)(O)O)ccc4s3)C(C)(C)C)C2)NC(=O)[C@@H]2C[C@@H](O)CN2C(=O)[C@@H](NC(=O)C2(F)CC2)C(C)(C)C)cc1 [Compound 578, (difluoro(2-(((S)-1-((2S,4R)-4-(9-((S)-3-((2S,4R)-1-((S)-2-(1-fluorocyclopropane-1-carboxamido)-3,3-dimethylbutanoyl)-4-hydroxypyrrolidine-2-carboxamido)-3-(4-(4-methylthiazol-5-yl)phenyl)propanamido)nonanamido)-2-((5-phenylthiazol-2-yl)carbamoyl)pyrrolidin-1-yl)-3,3-dimethyl-1-oxobutan-2-yl)carbamoyl)benzo[b]thiophen-5-yl)methyl)phosphonic acid] | > 300 | > 300 | – | – | –
2 | CN(CCCC#Cc1cccc2c1CN(C1CCC(=O)NC1=O)C2=O)C(=O)CCN(C(=O)[C@@H]1CCCN1C(=O)[C@@H](NC(=O)c1cc2cc(C(F)(F)P(=O)(O)OCOC(=O)C(C)(C)C)ccc2s1)C(C)(C)C)c1ccc(Br)cc1 (stereo partly drawn) [Compound 677, ((((2-(((2S)-1-((2S)-2-((4-bromophenyl)(3-((5-(2-(2,6-dioxopiperidin-3-yl)-1-oxoisoindolin-4-yl)pent-4-yn-1-yl)(methyl)amino)-3-oxopropyl)carbamoyl)pyrrolidin-1-yl)-3,3-dimethyl-1-oxobutan-2-yl)carbamoyl)benzo[b]thiophen-5-yl)difluoromethyl)(hydroxy)phosphoryl)oxy)methyl pivalate] | > 300 | – | – | – | DC50 (STAT5; [3]): < 100 nM
3 | CC(C)(C)[C@H](NC(=O)c1cc2cc(C(F)(F)P(=O)(O)O)ccc2s1)C(=O)N1CCC[C@H]1C(=O)N(CCC(=O)NCCCC#Cc1cccc2c1CN(C1CCC(=O)NC1=O)C2=O)c1ccc2scnc2c1 (stereo partly drawn) [Compound 668, ((2-(((2S)-1-((2S)-2-(benzo[d]thiazol-5-yl(3-((5-(2-(2,6-dioxopiperidin-3-yl)-1-oxoisoindolin-4-yl)pent-4-yn-1-yl)amino)-3-oxopropyl)carbamoyl)pyrrolidin-1-yl)-3,3-dimethyl-1-oxobutan-2-yl)carbamoyl)benzo[b]thiophen-5-yl)difluoromethyl)phosphonic acid] | > 300 | – | 100 to 1000 | 100 to 1000 | DC50 (STAT5; [3]): < 100 nM
4 | CN(CCCC#Cc1cccc2c1CN(C1CCC(=O)NC1=O)C2=O)C(=O)CCN(C(=O)[C@@H]1CCCN1C(=O)[C@@H](NC(=O)c1cc2cc(C(F)(F)P(=O)(O)O)ccc2s1)C(C)(C)C)c1ccc2sccc2c1 (stereo partly drawn) [Compound 685, ((2-(((2S)-1-((2S)-2-(benzo[b]thiophen-5-yl(3-((5-(2-(2,6-dioxopiperidin-3-yl)-1-oxoisoindolin-4-yl)pent-4-yn-1-yl)(methyl)amino)-3-oxopropyl)carbamoyl)pyrrolidin-1-yl)-3,3-dimethyl-1-oxobutan-2-yl)carbamoyl)benzo[b]thiophen-5-yl)difluoromethyl)phosphonic acid] | – | – | 100 to 1000 | 100 to 1000 | –
5 | Cc1ccc(N(CCC(=O)NCCCC#Cc2cccc3c2CN(C2CCC(=O)NC2=O)C3=O)C(=O)[C@@H]2CCCN2C(=O)[C@@H](NC(=O)c2cc3cc(C(F)(F)P(=O)(O)O)ccc3s2)C(C)(C)C)cc1 (stereo partly drawn) [Compound 646, ((2-(((2S)-1-((2S)-2-((3-((5-(2-(2,6-dioxopiperidin-3-yl)-1-oxoisoindolin-4-yl)pent-4-yn-1-yl)amino)-3-oxopropyl)(p-tolyl)carbamoyl)pyrrolidin-1-yl)-3,3-dimethyl-1-oxobutan-2-yl)carbamoyl)benzo[b]thiophen-5-yl)difluoromethyl)phosphonic acid] | – | > 300 | – | 100 to 1000 | –
6 | CC(C)(C)[C@H](NC(=O)c1cc2cc(C(F)(F)P(=O)(O)O)ccc2s1)C(=O)N1C[C@H](OCc2ccccc2)C[C@H]1C(=O)N(CCC(=O)NCCCC#Cc1cccc2c1CN(C1CCC(=O)NC1=O)C2=O)c1ccc(Br)cc1 (stereo partly drawn) [Compound 618] | – | > 300 | – | – | –
7 | CCN1CC[C@H]2CC[C@@H](C(=O)N(CCC(=O)NCCC#Cc3cccc4c3CN(C3CCC(=O)NC3=O)C4=O)c3ccc(Br)cc3)N2C(=O)[C@@H](NC(=O)c2cc3cc(C(F)(F)P(=O)(O)O)ccc3s2)C1 (stereo partly drawn) [Compound 626, ((2-(((5S,8S,10aR)-8-((4-bromophenyl)(3-((4-(2-(2,6-dioxopiperidin-3-yl)-1-oxoisoindolin-4-yl)but-3-yn-1-yl)amino)-3-oxopropyl)carbamoyl)-3-ethyl-6-oxodecahydropyrrolo[1,2-a][1,5]diazocin-5-yl)carbamoyl)benzo[b]thiophen-5-yl)difluoromethyl)phosphonic acid] | – | > 300 | – | – | –
8 | CCN1CC[C@H]2CC[C@@H](C(=O)N(CCC(=O)N3CCC(C#Cc4cccc5c4CN(C4CCC(=O)NC4=O)C5=O)CC3)c3ccc(Br)cc3)N2C(=O)[C@@H](NC(=O)c2cc3cc(C(F)(F)P(=O)(O)O)ccc3s2)C1 (stereo partly drawn) [Compound 630, ((2-(((5S,8S,10aR)-8-((4-bromophenyl)(3-(4-((2-(2,6-dioxopiperidin-3-yl)-1-oxoisoindolin-4-yl)ethynyl)piperidin-1-yl)-3-oxopropyl)carbamoyl)-3-ethyl-6-oxodecahydropyrrolo[1,2-a][1,5]diazocin-5-yl)carbamoyl)benzo[b]thiophen-5-yl)difluoromethyl)phosphonic acid] | – | > 300 | – | – | –

The next lines start with results.

Row | DC50 (STAT6; [1]) [nM] | DC50 (STAT5; [2]) [nM] | DC50 (STAT5; [4]) [nM] | DC50 (STAT5; [5]) [nM] | SMILES | other results
9 | > 300 | > 300 | > 10000 | > 10000 | CC(C)(C)[C@H](NC(=O)c1cc2cc(C(F)(F)P(=O)(O)O)ccc2s1)C(=O)N1CCC[C@H]1C(=O)N(CCC(=O)N1CC(CC#Cc2cccc3c2CN(C2CCC(=O)NC2=O)C3=O)C1)c1ccc(Br)cc1 (stereo partly drawn) [Compound 667, ((2-(((2S)-1-((2S)-2-((4-bromophenyl)(3-(3-(3-(2-(2,6-dioxopiperidin-3-yl)-1-oxoisoindolin-4-yl)prop-2-yn-1-yl)azetidin-1-yl)-3-oxopropyl)carbamoyl)pyrrolidin-1-yl)-3,3-dimethyl-1-oxobutan-2-yl)carbamoyl)benzo[b]thiophen-5-yl)difluoromethyl)phosphonic acid] | –
10 | – | – | 100 to 1000 | – | CC(C)(C)[C@H](NC(=O)c1cc2cc(C(F)(F)P(=O)(O)O)ccc2s1)C(=O)N1CCC[C@H]1C(=O)N(CCC(=O)NCCCCC#Cc1cccc2c1CN(C1CCC(=O)NC1=O)C2=O)c1ccc(Br)cc1 (stereo partly drawn) [Compound 686, ((2-(((2S)-1-((2S)-2-((4-bromophenyl)(3-((6-(2-(2,6-dioxopiperidin-3-yl)-1-oxoisoindolin-4-yl)hex-5-yn-1-yl)amino)-3-oxopropyl)carbamoyl)pyrrolidin-1-yl)-3,3-dimethyl-1-oxobutan-2-yl)carbamoyl)benzo[b]thiophen-5-yl)difluoromethyl)phosphonic acid] | DC50 (STAT6; KU-812 cells, read-out: DC50 S6 KU-812): > 10000 nM
11 | – | – | 100 to 1000 | 1000 to 10000 | CC(C)(C)[C@H](NC(=O)c1cc2cc(C(F)(F)P(=O)(O)O)ccc2s1)C(=O)N1CCC[C@H]1C(=O)N(CCC(=O)NCCCCCCC#Cc1cccc2c1CN(C1CCC(=O)NC1=O)C2=O)c1ccc(Br)cc1 (stereo partly drawn) [Compound 404, ((2-(((2S)-1-((2S)-2-((4-bromophenyl)(3-((8-(2-(2,6-dioxopiperidin-3-yl)-1-oxoisoindolin-4-yl)oct-7-yn-1-yl)amino)-3-oxopropyl)carbamoyl)pyrrolidin-1-yl)-3,3-dimethyl-1-oxobutan-2-yl)carbamoyl)benzo[b]thiophen-5-yl)difluoromethyl)phosphonic acid] | DC50 (STAT6; MB231 cells, read-out: DC50 S6 MB231): > 10000 nM; DC50 (STAT6; MOLM-16 cells, class symbols, read-out: DC50 S6 MOLM-16): > 10000 nM; DC50 (STAT5; [3]): 100 to 1000 nM
12 | > 300 | > 300 | 1000 to 10000 | 1000 to 10000 | CC(C)(C)[C@H](NC(=O)c1cc2cc(C(F)(F)P(=O)(O)O)ccc2s1)C(=O)N1CCC[C@H]1C(=O)N(CCC(=O)N1CC(CCC#Cc2cccc3c2CN(C2CCC(=O)NC2=O)C3=O)C1)c1ccc(Br)cc1 (stereo partly drawn) [Compound 666, ((2-(((2S)-1-((2S)-2-((4-bromophenyl)(3-(3-(4-(2-(2,6-dioxopiperidin-3-yl)-1-oxoisoindolin-4-yl)but-3-yn-1-yl)azetidin-1-yl)-3-oxopropyl)carbamoyl)pyrrolidin-1-yl)-3,3-dimethyl-1-oxobutan-2-yl)carbamoyl)benzo[b]thiophen-5-yl)difluoromethyl)phosphonic acid] | –
